One data set deals with FimH (Escherichia coli, UniProt Q1R2J4). It is filed as cell-based, uropathogenic E. coli (UPEC) strain UTI89. As to conditions: for HAI: hemagglutination inhibition titer (EC>90, Figure 5 legend).
In another data set the test system is UPEC biofilm formation. Description: biofilm prevention assay. It is filed as cell-based, uropathogenic E. coli (UPEC) strain UTI89. As to conditions: read-out: Biofilm IC50.
In the next data set the target is FimH lectin domain (Escherichia coli, UniProt P08191). Set-up: species or system uropathogenic E. coli (UPEC). The settings on record: melting temperature of FimH lectin domain, relative binding strength.
Data set [1] is described as follows: i.v./p.o. crossover PK study in rat. It is filed as in vivo.
Data set [2] can be described thus: in vivo mouse PK, urine mannoside concentration. As to conditions: mice, 50 mgkg^−1 oral gavage, 10% cyclodextrin, 1 h post-dosing.
For data set [3], the system named is UTI89 chronically infected mice. Description: murine model of chronic UTI. Type of data set: in vivo. The settings on record: 50 mgkg^−1 p.o., 10% cyclodextrin, 6 h post-dosing.

The structures appear in SMILES notation. Where two headings read alike, the source gives them in different places.

Sequence of FimH lectin domain (P08191 22-179): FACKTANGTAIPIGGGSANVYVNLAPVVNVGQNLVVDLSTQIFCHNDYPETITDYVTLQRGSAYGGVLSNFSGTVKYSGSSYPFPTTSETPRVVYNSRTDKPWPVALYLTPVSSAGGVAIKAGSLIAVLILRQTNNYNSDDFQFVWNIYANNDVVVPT

Regarding `COC(=O)c1cccc(-c2ccc(O[C@H]3O[C@H](CO)[C@@H](O)[C@H](O)[C@@H]3O)cc2)c1` [Compound 2], at FimH, the HAI was 1.0 µM. Besides, in the data set on UPEC biofilm formation (biofilm prevention), the IC50 came to 940 nM. The “DSF Tm” value at FimH lectin domain was 73.4 °C.

With `Cc1cc(-c2ccc3cc[nH]c(=O)c3c2)ccc1O[C@H]1O[C@H](CO)[C@@H](O)[C@H](O)[C@@H]1O` [Compound 22, 2-methyl-4-(1-oxo-1,2-dihydroisoquinolin-7-yl)phenyl α-D-mannopyranoside], the HAI at FimH was 0.031 µM. For the same molecule, on FimH (ortho-methyl matched pairs), the “increase in activity in HA assay relative to 16 and 17, respectively” value was “fourfold”. Further, in the data set with UPEC biofilm formation (Escherichia coli), the IC50 is 130 nM. For the same molecule, the “DSF Tm” value at FimH lectin domain was 75.5 °C. Moreover, in data set [1] (10 mgkg^−1 oral (p.o.) dose, 10% cyclodextrin formulation), the “Rat F” value amounted to 7.0%. In addition, the “Rat CL” value in data set [1] (calculated from a 10 mgkg^−1 oral (p.o.) dose, 10% cyclodextrin formulation) was 408 mLmin^−1kg^−1. Besides, the half-life in data set [1] (rat, in vivo, po, 10 mgkg^−1) was under 3 h. In addition, in data set [2], the initial urine concentration entry is on record as “elevated relative to 5”. In addition, in data set [3], the “additional drop in CFUs per bladder relative to 5, 7 (and 17b)” value is listed as 10 fold.

The record behind these values is PMC4818977 (ChemMedChem, 2016).
